Results reported in PubChem BioAssay (NCI).
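Method: 48-hour compound exposure of cells in 96-well plates, five concentrations, linear interpolation of endpoints. Here, GI50 denotes the concentration required for 50% inhibition of growth. Definition used: TGI = concentration required for complete inhibition of growth.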

Assays:
Test in all cases: DTP human tumour cell line panel, 48 h
OVCAR-8 ovarian = system: OVCAR-8 ovarian
SK-OV-3 ovarian = system: SK-OV-3 ovarian
SF-295 CNS = system: SF-295 CNS
HCC-2998 colon = system: HCC-2998 colon
SW-620 colon = system: SW-620 colon
786-0 renal = system: 786-0 renal
COLO 205 colon = system: COLO 205 colon
UO-31 renal = system: UO-31 renal
SF-268 CNS = system: SF-268 CNS
MDA-MB-231 breast = system: MDA-MB-231 breast

| SMILES | TGI (OVCAR-8 ovarian) [µM] | TGI (SK-OV-3 ovarian) [µM] | TGI (SF-295 CNS) [µM] | TGI (HCC-2998 colon) [µM] | TGI (SW-620 colon) [µM] | TGI (786-0 renal) [µM] | TGI (COLO 205 colon) [µM] | TGI (UO-31 renal) [µM] | TGI (SF-268 CNS) [µM] | TGI (MDA-MB-231 breast) [µM] | GI50 (MDA-MB-231 breast) [µM] | GI50 (SK-OV-3 ovarian) [µM] | GI50 (SF-295 CNS) [µM] | GI50 (HCC-2998 colon) [µM] | GI50 (SW-620 colon) [µM] | GI50 (786-0 renal) [µM] | GI50 (COLO 205 colon) [µM] | GI50 (UO-31 renal) [µM] | GI50 (SF-268 CNS) [µM] | GI50 (OVCAR-8 ovarian) [µM] |
| --- | --- | --- | --- | --- | --- | --- | --- | --- | --- | --- | --- | --- | --- | --- | --- | --- | --- | --- | --- | --- |
| CN(C)c1ccc(-c2nc(N)nc3c2CCCC3)cc1 | > 100 | > 100 | > 100 | > 100 | > 100 | > 100 | > 100 | > 100 | > 100 |  |  |  |  |  |  |  |  |  |  |  |
| CN1C=C(C(N)=O)Cc2ccsc21 | > 100 | > 100 | > 100 | > 100 | > 100 | > 100 | > 100 | > 100 | > 100 |  |  |  |  |  |  |  |  |  |  |  |
| Cc1ccc(C)c(NC(=O)C(=O)C(C2C(C)CC(=O)C2CC(=O)O)[N+](=O)[O-])c1 (configuration not stated) |  | > 100 | > 100 | > 100 | > 100 | > 100 | > 100 | > 100 | > 100 |  |  |  |  |  |  |  |  |  |  |  |
| CCCCCCCCCCCCNC(=S)OCCCC | > 100 | > 100 | > 100 | > 100 | > 100 | > 100 |  | > 100 | > 100 |  |  |  |  |  |  |  |  |  |  |  |
| CC(=O)OC1CCC2(C)C(=CCC3C2CCC2(C)C3CC3OC4(CCC(C)CN4)C(C)C32)C1 (configuration not stated) | > 100 | > 100 | > 100 |  | > 100 | > 100 | > 100 | > 100 | > 100 | > 100 |  |  |  |  |  |  |  |  |  |  |
| CC(C)(C)c1ccc(OCCCCCCCN2CCNCC2)cc1 |  | 3.92 | 3.78 | 3.22 | 3.26 | 3.07 | 3.24 | 3.31 | 6.65 | 3.02 | 1.31 | 1.82 | 1.84 | 1.7 | 1.67 | 1.63 | 1.49 | 1.43 | 2.36 |  |
| Nc1ncnc2c1ncn2C1(CO)OC(CO)C(O)C1O (configuration not stated) |  | > 100 | > 100 | > 100 | > 100 | > 100 | > 100 |  | > 100 |  |  |  |  |  |  |  |  |  |  |  |
| CN(C)Cc1nsc(N(C)C)n1 | > 100 | > 100 | > 100 |  | > 100 | > 100 | > 100 | > 100 | > 100 | > 100 |  |  |  |  |  |  |  |  |  |  |
| Cc1ccccc1-c1cc(=O)c2cc(C)c(C)c(C(=O)O)c2o1 | > 100 | > 100 | > 100 | > 100 | > 100 | > 100 | > 100 | > 100 |  |  |  |  |  |  |  |  |  |  |  |  |
| COC(=O)C(C(=O)C(=O)Nc1nc2ccc(OC)cc2s1)c1cnc2ccccc2n1 (configuration not stated) |  | > 100 | > 100 | > 100 | > 100 | > 100 | > 100 | > 100 | > 100 |  |  |  |  |  |  |  |  |  |  |  |
| O=S(=O)(c1ccccc1)C1(C2(S(=O)(=O)c3ccccc3)CCN=N2)CCN=N1 (configuration not stated) | > 100 | > 100 | > 100 | > 100 | > 100 | > 100 | > 100 | > 100 | > 100 |  |  |  |  |  |  |  |  |  |  |  |
| CCOC(=O)c1nc2sc(Cl)cn2c1/C=N/N=C(N)N | > 53.8 | 98.3 | > 52.3 |  | 43.8 | 39.8 | 37.9 | 35.6 | > 100 | 37.2 | 14.3 | 44.3 | 27.7 |  | 14.7 | 18.6 | 15.1 | 18.3 | 32 | 26.9 |
| C=CCN=C1NC(=O)C(CC(=O)Nc2ccc([N+](=O)[O-])cc2[N+](=O)[O-])S1 (configuration not stated) | > 100 | > 100 | > 100 | > 100 | > 100 | > 100 | > 100 | > 100 | > 100 |  |  |  |  |  |  |  |  |  |  |  |
| COc1ccc(C)cc1-c1ccc(-c2cc(C)ccc2OC)o1 | > 100 | > 100 | > 100 | > 100 | > 100 | > 100 | > 100 | > 100 | > 100 |  |  |  |  |  |  |  |  |  |  |  |
| CCCOC(=O)C1C(c2ccc(OC)cc2)NC(c2ccc(OC)cc2)C(C(=O)OCCC)S1(=O)=O (configuration not stated) | > 100 | > 100 | > 100 | > 100 | > 100 | > 100 | > 100 | > 100 | > 100 |  |  |  | > 100 | > 100 | > 100 | > 100 | > 100 | > 100 | > 100 | > 100 |
| CC1(C)CCOC(Sc2ccccc2)C1 (configuration not stated) | > 100 | > 100 | > 100 | > 100 | > 100 | > 100 | > 100 | > 100 | > 100 |  |  |  |  |  |  |  |  |  |  |  |
| O=C1c2ccccc2C(=O)N1CCN(CCN1C(=O)c2ccccc2C1=O)Cc1ccccc1 | > 100 | > 100 | > 100 |  | > 100 | > 100 | > 100 | > 100 | > 100 |  |  |  |  |  |  |  |  |  |  |  |
| O=C1CC2=CCCC2O1 (configuration not stated) | > 100 | > 100 | > 100 | > 100 | > 100 | > 100 | > 100 | > 100 | > 100 |  |  |  |  |  |  |  |  |  |  |  |
| O=C1C=C(c2ccccc2)NC1(c1ccccc1)c1cc(-c2ccccc2)[nH]c1-c1ccccc1 (configuration not stated) | > 100 | > 100 | > 100 | > 100 | > 100 | > 100 | > 100 | > 100 |  |  |  |  |  |  |  |  |  |  |  |  |
| COC(=O)N1C=CC2=C(C)C3Nc4ccccc4C3C(C)=C2C1 (configuration not stated) | 7.5 | 8.71 | 17.9 | 11.9 | 21.9 | 2.16 | 6.66 | 3.88 | 74.2 |  |  |  |  |  |  |  |  |  |  |  |
| O=C1OC(=O)c2c1cc1cc3c(cc1c2-c1ccc2c(c1)OCO2)OCO3 | > 100 |  | > 100 | > 100 | > 100 | 48.1 | > 100 | > 100 | > 100 | > 100 |  |  |  |  |  |  |  |  |  |  |
